Entries after “also recorded” stand apart in the source; their conditions may differ.
B1: RMTSV: VP16 activation domain fused to RMTS (FRB-minimal lac repressor tetramerization domain-p65) (protein)
chain: EMWHEGLEEASRLYFGERNVKGMFEVLEPLHAMMERGPQTLKETSFNQAYGRDLMEAQEWCRKYMKSGNVKDLTQAWDLYYHVFRRISKVKRKTTLAPNTQTASPRALADSLMQLARQVSRLESGQDEFPTMVFPSGQISQASALAPAPPQVLPQAPAPAPAPAMVSALAQAPAPVPVLAPGPPQAVAPPAPKPTQAGEGTLSEALLQLQFDDEDLGALLGNSTDPAVFTDLASVDNSEFQQLLNQGIPVAPHTTEPMLMEYPEAITRLVTGAQRPPDPAPAPLGAPGLPNGLLSGDEDFSSIADMDFSALLSQISSLGDELHLDGEDVAMAHADALDDFDLDMLGDGDSPGPGFTPHDSAPYGALDMADFEFEQMFTDALGIDEYGG
modifications: left off: small tags and cut ends

Tests used:
[1] = test system: reporter gene; assay: Transcription assay of p65 activation domain mutants; type: cell-based; conditions: for potency of p65 activation domain to induce the reporter gene, relative to wild type: mutated p65 activation domain
Source text: Thus, in one embodiment of this invention, mutations are introduced into the activation domain by standard techniques known in the art, such as site-directed PCR based mutagenesis. In this embodiment, one to five, in some cases one to three, alterations in peptide sequence can be introduced into the DNA coding for the activation domain. Each of these mutations either alone or in combination with one or more other mutations may be readily assayed for its ability to induce the transcription of either transiently transfected or stably integrated target reporter gene constructs. For instance, a construct encoding a fusion protein containing multiple copies of the modified sequence and a DNA binding domain can be introduced into cells and the activity of the encoded fusion protein measured in transcription assays (with a responsive reporter gene construct) and compared to analogous fusion proteins containing wild-type activation domain sequence or a different mutation of interest.
The foregoing is illustrated in the case of the p65 transcription activation domains. Constructs are prepared encoding fusion proteins containing one or more p65 transcription activation domains and a DNA binding domain. The p65 domains may be wild-type (as a control) or may contain any of a variety of alterations in peptide sequence. These mutations can generally be introduced into a variety of p65-derived transcription activation domains. For example, M1 mutations can be introduced into plasmids carrying p65 activation domain coding regions between amino acids 533 and 550, or 361 and 550, or 280 and 550.
Exemplary mutations for p65 transcription activation domains include those intended to increase the potency of the p65 activation domain (including the M1, M2, M6, M7 and M8 mutations) and those intended to decrease the potency (generally slightly) of the activation domain. […] Mutations of the M4 and M5 class change the conserved serine and proline residues between amino-acids 361 and 450. […] In GST pull down assays, the region of the M4 and M5 mutations interacts with TFIIA. […] Thus, mutations for the practitioner to bear in mind include, but are not limited to, the following: […]

[2] = test system: GAL4 responsive reporter gene; assay: Rapamycin-induced expression of stably integrated GAL4-responsive SEAP reporter in transfected HT1080 B cells; type: cell-based

Row | Molecule | expression of target genes when fused to other acidic type activation domains [1] | potency of p65 activation domain to induce the reporter gene, relative to wild type [1] | other results
1 | 377-GALALGAGGQVL(SEQ ID NO:11) [M4] | synergistically | very small effect | 
2 | 401-GALAQAGAGVG (SEQ ID NO:13) [M5] | synergistically | very small effect | 
3 | 529-GDEDASSIADMDASALLSQI (SEQ ID NO:9) [F 533 and F 541 to alanine residues] |  | half of wild type level | 
4 | CO[C@H]1C[C@@H]2CC[C@@H](C)[C@@](O)(O2)C(=O)C(=O)N2CCCC[C@H]2C(=O)O[C@H]([C@H](C)C[C@@H]2CC[C@@H](O)[C@H](OC)C2)CC(=O)[C@H](C)/C=C(\C)[C@@H](O)[C@@H](OC)C(=O)[C@H](C)C[C@H](C)/C=C/C=C/C=C/1C [rapamycin, reference compound] |  |  | rapamycin concentration giving peak levels of reporter gene expression ([2]; GF4 with RS, RMTS or RMTSV): 10 nM
5 | B1 |  |  | reporter gene expression at 1 nM rapamycin ([2]; GF4 DNA binding receptor, 1 nM rapamycin in the medium): induced the reporter gene expression robustly; reporter gene expression at the lowest level of activation domains expressed ([2]; fixed amount of GF4, 10 nM rapamycin): robust activation of reporter gene expression; also recorded: exceeded the level stimulated by the highest amount of RS fusion proteins

— patent publication US6479653B1, “Compositions and method for regulation of transcription” (ARIAD Gene Therapeutics, Inc., priority 1997, dated 2002)
